# Assay results as given in patent US6924314B2, “Compounds for the treatment of metabolic disorders” (Wellstat Therapeutics Corporation, priority 2001, dated 2005).
# Legend:
# [1] = test system: ob/ob obese diabetic mice; test: Acute hypoglycemic effect in ob/ob obese diabetic mice: Experiment 1; assay type: in vivo
# Method: Male ob/ob diabetic mice were randomized into groups of five animals each. Body weights were 50-55 g and blood glucose was approximately 300 mg/dL in the fed state. A single oral dose of a test substance suspended in 0.5% carboxymethylcellulose vehicle was administered by gavage. Blood glucose was measured in blood droplets obtained by nicking a tail vein with a razor using glucometer test strips and a Glucometer Elite XL device (Bayer) at 0, 0.5, 2, 4, 6 and 18 hours after the initial dosing. A 10% reduction in blood glucose versus oral vehicle is considered a positive screening result. Blood glucose reductions were generally maximal at 6 hours after drug administration.
# [2] = test system: ob/ob obese diabetic mice; test: Acute hypoglycemic effect in ob/ob obese diabetic mice: Expt 2; assay type: in vivo; settings: single oral dose 250 mg/kg; for change in vivo at 250 mg/kg: Mus musculus, 6 hours, read-out: % Reduction vs Control
# Method: Male ob/ob mice (50-55 grams; blood glucose ˜300 mg/dL) were divided into groups of five animals each, and given a single oral dose of test drug (250 mg/kg) suspended in 0.5% carboxymethylcellulose vehicle; a control group received oral vehicle alone.
# Six hours after oral administration of test drugs or vehicle (control), blood samples were obtained from a tail vein and glucose content was determined with a glucometer.
# db/db mice = test: Antidiabetic effects in db/db mice, 2 weeks (Example I); assay type: in vivo, C57BL/Ksola mice; settings: for Glucose / Glucose (% of Control): nonfasting; for Free Fatty Acids ± SEM / Triglycerides ± SEM: serum
# Text: db/db mice have a defect in leptin signaling, leading to hyperphagia, obesity and diabetes. Moreover, unlike ob/ob mice on a C57BL/6J background, db/db mice on a C57BL/KS background undergo failure of their insulin-producing pancreatic islet β cells, resulting in progression from hyperinsulinemia (associated with peripheral insulin resistance) to hypoinsulinemic diabetes.
# A minimum of 7 days was allowed for adaptation after arrival.
# Treatment cohorts were given daily oral doses of (1% hydroxypropylmethylcellulose), Compounds BI, BO, BP, BQ or BR for 2 weeks. At the end of the treatment period 100 μl of venous blood was withdrawn in a heparinized capillary tube from the retro-orbital sinus of db/db mice for serum chemistry analysis.
# [3] = test system: high fat-fed C57Bl/6J mice; test: Circulating triglycerides, free fatty acids, insulin and leptin in high fat-fed C57Bl/6J mice; assay type: in vivo; settings: for Free Fatty Acids / Triglycerides: after 2 weeks of drug treatments
# Text: The high fat-fed mouse is a model for the hypertriglyceridemia and high circulating fatty acid levels, and the insulin and leptin resistance that are found in people at risk for and with obesity, diabetes, cardiovascular disease and other disorders. Male C57Bl/6J mice, approximately 8 weeks of age, were randomly assigned into groups of 6 animals. […] Mice were fed a high-fat diet (diet number D12451, containing 45% of calories as fat (Research Diets, New Brunswick, N.J.)) for 6 weeks. […]
# [4] = single oral dose by gavage, 6 hours
compound,measurement,setting,value
"COc1ccccc1COc1ccc(C(=O)CCC(=O)O)cc1 [Compound AB, 4-(4-(2-Methoxybenzyloxy)phenyl)-4-oxobutyric acid]",% Reduction vs Control,[1]; [4],−39.1 ± 6.4%
same,Blood Glucose after 6 hours,[1]; [4],181 ± 19 mg/dL
"O=C(O)CCC(=O)c1ccc(OCc2ccccc2Cl)cc1 [Compound AI, 4-(4-(2-Chlorobenzyloxy)phenyl)-4-oxobutyric acid]",% Reduction vs Control,[1]; [4],−14.1 ± 3.0%
same,Blood Glucose after 6 hours,[1]; [4],255 ± 9 mg/dL
"Cc1ccc(C)c(COc2ccc(C(=O)CCC(=O)O)cc2)c1 [Compound AT, 4-(4-(2,5-Dimethylbenzyloxy)phenyl)-4-oxobutyric acid]",change in vivo at 250 mg/kg,[2],-35.1 ± 2.3%
same,Blood Glucose after 6 hours,[2],198 ± 28 mg/dL
"Cc1ccccc1COc1ccc(C(=O)CCC(=O)O)cc1 [Compound AL, 4-(4-(2-Methylbenzyloxy)phenyl)-4-oxobutyric acid]",% Reduction vs Control,[1]; [4],−43.4 ± 4.4%
same,Blood Glucose after 6 hours,[1]; [4],168 ± 13 mg/dL
"O=C(O)CCC(=O)c1ccc(OCCc2cccs2)cc1 [Compound AR, 4-(4-(2-(2-Thienyl)ethoxy)phenyl)-4-oxobutyric acid]",change in vivo at 250 mg/kg,[2],-41.3 ± 4.2%
same,Blood Glucose after 6 hours,[2],179 ± 14 mg/dL
"O=C(O)CCC(=O)c1ccc(OCc2ccccc2)cc1 [Compound AG, 4-(4-(Benzyloxy)phenyl)-4-oxobutyric acid]",% Reduction vs Control,[1]; [4],−25.3 ± 7.7%
same,Blood Glucose after 6 hours,[1]; [4],222 ± 23 mg/dL
"O=C(O)CCC(=O)c1ccc(OCCc2ccccc2F)cc1 [Compound AJ, 4-(4-(2-(2-Fluorophenyl)ethoxy)phenyl)-4-oxobutyric acid]",% Reduction vs Control,[1]; [4],−36.0 ± 4.7%
same,Blood Glucose after 6 hours,[1]; [4],190 ± 14 mg/dL
"O=C(O)CCC(=O)c1ccc(OCc2ccccn2)cc1 [Compound AF, 4-(4-((2-Pyridinyl)-methoxy)phenyl)-4-oxobutyric acid]",Blood Glucose after 6 hours,[1]; [4],314 ± 32 mg/dL
same,% Reduction vs Control,"[1]; single oral dose, 6 hour reading normalized to initial blood glucose of this group, 416 ± 29 mg/dL",−24.6 ± 7.7 %
"O=C(O)CCC(=O)c1cccc(OCc2ccc(C(F)(F)F)cc2)c1 [BQ, 4-(3-(4-Trifluoromethylbenzyloxy)phenyl)-4-oxobutyric acid]",Glucose,db/db mice; 100 mg/kg daily oral,473 ± 49 mg/dL
same,Glucose (% of Control),db/db mice; 100 mg/kg daily oral,75 ± 7 % of Control
same,Free Fatty Acids ± SEM,db/db mice; 100 mg/kg daily oral,2825.9 ± 110.9 µM
same,Triglycerides ± SEM,db/db mice; 100 mg/kg daily oral,131.6 ± 20.7 mg/dL
"O=C(O)CCC(=O)c1ccc(OCC2CC2)cc1 [Compound AX, 4-(4-((Cyclopropyl)-methoxy)phenyl)-4-oxobutyric acid]",change in vivo at 250 mg/kg,[2],-45.9 ± 2.4%
same,Blood Glucose after 6 hours,[2],165 ± 23 mg/dL
"Cc1ccccc1COc1cccc(C(=O)CCC(=O)O)c1 [Compound AN, 4-(3-(2-Methylbenzyloxy)phenyl)-4-oxobutyric acid]",change in vivo at 250 mg/kg,[2],-50.2 ± 4.5%
same,Blood Glucose after 6 hours,[2],152 ± 11 mg/dL
"CCOC(=O)CCC(=O)c1ccc(OCc2ccccc2F)cc1 [Compound AK, Ethyl 4-(4-(2-fluorobenzyloxyl)phenyl)-4-oxobutyrate]",% Reduction vs Control,[1]; [4],−29.3 ± 3.4%
same,Blood Glucose after 6 hours,[1]; [4],210 ± 10 mg/dL
"O=C(O)CCC(=O)c1cccc(OCC2CCC2)c1 [BR, 4-(3-((Cyclobutyl)-methoxy)phenyl)-4-oxobutyric acid]",Glucose,db/db mice; 82 mg/kg daily oral,703 ± 64 mg/dL
same,Glucose (% of Control),db/db mice; 82 mg/kg daily oral,111 ± 10 % of Control
same,Free Fatty Acids ± SEM,db/db mice; 82 mg/kg daily oral,3653.4 ± 207.5 µM
same,Triglycerides ± SEM,db/db mice; 82 mg/kg daily oral,253.0 ± 32.0 mg/dL
"CCOC(=O)CCC(=O)c1ccc(OCc2c(F)cccc2F)cc1 [Compound AQ, Ethyl 4-(4-(2,6-difluorobenzyloxyl)phenyl)-4-oxobutyrate]",change in vivo at 250 mg/kg,[2],-27.9 ± 4.2%
same,Blood Glucose after 6 hours,[2],220 ± 17 mg/dL
"O=C(O)CCC(=O)c1ccc(OCc2ccccc2C(F)(F)F)cc1 [Compound AY, 4-(4-(2-Trifluoromethylbenzyloxy)phenyl)-4-oxobutyric acid]",change in vivo at 250 mg/kg,[2],-39.3 ± 2.9%
same,Blood Glucose after 6 hours,[2],185 ± 21 mg/dL
"Cc1cccc(C)c1COc1cccc(C(=O)CCC(=O)[O-])c1.[Na+] [Compound BL, 4-(3-(2,6-Dimethylbenzyloxy)phenyl)-4-oxobutyric acid Sodium salt]",Free Fatty Acids,[3]; 10 mg/kg oral gavage,1571.8 ± 100.9 µmol/L
same,Triglycerides,[3]; 10 mg/kg oral gavage,80 ± 12.2 mg/dL
same,Free Fatty Acids,[3]; 30 mg/kg oral gavage,1413.2 ± 228.7 µmol/L
same,Triglycerides,[3]; 30 mg/kg oral gavage,66.4 ± 13.7 mg/dL
same,Free Fatty Acids,[3]; 100 mg/kg oral gavage,1133.5 ± 132.7 µmol/L
same,Triglycerides,[3]; 100 mg/kg oral gavage,41 ± 5.6 mg/dL
same,serum triglycerides and free fatty acids,[3]; oral gavage,effective at lowering
same,insulin serum levels,"[3]; oral gavage, after 4 weeks of drug treatments (FIG. 1)",effective at lowering
same,leptin serum levels,"[3]; oral gavage, after 4 weeks of drug treatments (FIG. 2)",effective at lowering
"O=C(O)CCC(=O)c1ccc(OCc2cc(F)ccc2F)cc1 [Compound AU, 4-(4-(2,5-Difluorobenzyloxy)phenyl)-4-oxobutyric acid]",change in vivo at 250 mg/kg,[2],-26.6 ± 2.8%
same,Blood Glucose after 6 hours,[2],224 ± 26 mg/dL
"COc1cccc(OC)c1COc1cccc(C(=O)CCC(=O)O)c1 [BO, 4-(3-(2,6-Dimethoxybenzyloxy)phenyl)-4-oxobutyric acid]",Glucose,db/db mice; 100 mg/kg daily oral,586 ± 58 mg/dL
same,Glucose (% of Control),db/db mice; 100 mg/kg daily oral,93 ± 9 % of Control
same,Free Fatty Acids ± SEM,db/db mice; 100 mg/kg daily oral,3766.3 ± 234.5 µM
same,Triglycerides ± SEM,db/db mice; 100 mg/kg daily oral,261.1 ± 24.3 mg/dL
"O=C(O)CCC(=O)c1ccc(OCc2ccc(F)cc2F)cc1 [Compound AV, 4-(4-(2,4-Difluorobenzyloxy)phenyl)-4-oxobutyric acid]",change in vivo at 250 mg/kg,[2],-32.1 ± 3%
same,Blood Glucose after 6 hours,[2],207 ± 23 mg/dL
"O=C(O)CCSCc1ccc(OCc2c(F)cccc2F)cc1 [Compound AZ, 3-[(4-(2,6-Difluorobenzyloxy)phenyl)-methylthio]propionic acid]",change in vivo at 250 mg/kg,[2],-39 ± 6.1%
same,Blood Glucose after 6 hours,[2],186 ± 10 mg/dL
"Cc1cccc(C)c1COc1cccc(C(=O)CC(C)(C)C(=O)O)c1 [BP, 4-(3-(2,6-Dimethylbenzyloxy)phenyl)-4-oxo-2,2-dimethylbutyric acid]",Glucose,db/db mice; 100 mg/kg daily oral,629 ± 86 mg/dL
same,Glucose (% of Control),db/db mice; 100 mg/kg daily oral,99 ± 14 % of Control
same,Free Fatty Acids ± SEM,db/db mice; 100 mg/kg daily oral,3772.6 ± 182.5 µM
same,Triglycerides ± SEM,db/db mice; 100 mg/kg daily oral,302.1 ± 28.1 mg/dL
"Cc1cccc(Nc2cc(Cl)nc(SCC(=O)O)n2)c1C [Wy14643, reference compound]",Free Fatty Acids,[3]; 10 mg/kg oral gavage,1512.2 ± 172.9 µmol/L
same,Triglycerides,[3]; 10 mg/kg oral gavage,70.6 ± 10.8 mg/dL
same,Free Fatty Acids,[3]; 30 mg/kg oral gavage,1676 ± 237 µmol/L
same,Triglycerides,[3]; 30 mg/kg oral gavage,88 ± 12.5 mg/dL
same,Free Fatty Acids,[3]; 100 mg/kg oral gavage,1839.8 ± 154.8 µmol/L
same,Triglycerides,[3]; 100 mg/kg oral gavage,88.4 ± 18.8 mg/dL
"O=C(O)CCC(=O)c1c(F)cccc1F [Compound AS, 4-(2,6-Difluorophenyl)-4-oxobutyric acid]",change in vivo at 250 mg/kg,[2],-45.2 ± 2%
same,Blood Glucose after 6 hours,[2],167 ± 28 mg/dL
